Among the data in patent publication US20230131899A1, “INHIBITORS OF MICROBIALLY INDUCED AMYLOID” (Axial Therapeutics, Inc., priority 2020, published 2023) are inhibition values, retold here.

Where two headings read alike, the source gives them in different places.

For the assay, the target named is T1, human α-synuclein (Homo sapiens, UniProt P37840).
T1 construct: the full-length gene for untagged human α-synuclein was inserted; made in house; host or cells: E. coli BL21(DE3), plasmid derived from pT7 or pET11a
In words: Cell-free Thioflavin T assay of α-synuclein aggregation (αSyn ThT Assay). Format: biochemical. Particulars: αSyn 50 μM. In a few lines:
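Inhibition is reported as 100% minus background-corrected ThT signal relative to vehicle wells, taken at 36, 47, 48 or 72 h or the last read. Reactions held 50 μM recombinant α-synuclein, 20-100 μM compound, 20-40 μM ThT and 1% DMSO. Incubation was at 37° C., shaken, with a glass bead.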

Where [1] appears, read: class symbol, compounds 100 μM, read-out: αSyn ThT Assay % inhibition, activity range.
The mark [2] stands for this setting: mean percent inhibition relative to DMSO control, compounds 100 μM, read-out: αSyn ThT Assay % inhibition.
The mark [3] stands for this setting: mean % inhibition of αSyn aggregation relative to DMSO control, compounds at 100 μM, read-out: αSyn ThT Assay % Inhibition.
[4] abbreviates: compounds at 100 μM, class symbol, read-out: αSyn ThT Assay % Inhibition (activity range).

`CCCN1CC(C(=O)O)n2c(c(-c3cccc(C(F)(F)F)c3)c(Cc3cccc4ccccc34)c(O)c2=O)S1(=O)=O` (stereo not drawn) [Compound 141, 7-hydroxy-8-(naphthalen-1-ylmethyl)-6-oxo-2-propyl-9-(3-(trifluoromethyl)phenyl)-3,4-dihydro-2H,6H-pyrido[1,2-e][1,2,5]thiadiazine-4-carboxylic acid 1,1-dioxide]: the inhibition at 100 µM runs as follows: under setting [1], more than 60%; under setting [2], 79%.
Consider `CC1(C(=O)O)CNS(=O)(=O)c2c(-c3cccc(C(F)(F)F)c3)c(Cc3cccc4ccccc34)cc(=O)n21` (stereo not drawn) [Compound 042, 4-methyl-8-(naphthalen-1-ylmethyl)-6-oxo-9-(3-(trifluoromethyl)phenyl)-3,4-dihydro-2H,6H-pyrido[1,2-e][1,2,5]thiadiazine-4-carboxylic acid 1,1-dioxide], for which the inhibition at 100 µM is 84% under setting [3] and more than 60% under setting [4].
As for `CC1(C)Sc2c(-c3cccc(C(F)(F)F)c3)c(Cc3cccc4ccccc34)nc(=O)n2C1C(=O)O` (stereo not drawn) [Compound 059, 2,2-dimethyl-7-(naphthalen-1-ylmethyl)-5-oxo-8-(3-(trifluoromethyl)phenyl)-2,3-dihydro-5H-thiazolo[3,2-c]pyrimidine-3-carboxylic acid], the inhibition at 100 µM is, setting by setting: under setting [3], 36%; under setting [4], 31 to 60%.
On to `NC(=O)c1c(Cc2cccc3ccccc23)c(-c2cccc(C(F)(F)F)c2)c2n(c1=O)C(C(=O)O)CN(CCCO)S2(=O)=O` (stereo not drawn) [Compound 184, 7-carbamoyl-2-(3-hydroxypropyl)-8-(naphthalen-1-ylmethyl)-6-oxo-9-(3-(trifluoromethyl)phenyl)-3,4-dihydro-2H,6H-pyrido[1,2-e][1,2,5]thiadiazine-4-carboxylic acid 1,1-dioxide], for which the inhibition at 100 µM is, setting by setting: under setting [1], more than 60%; under setting [2], 75%.
For the compound `O=C(O)C1CSc2c(-c3cccc(C(F)(F)F)c3)c(Cc3cccc4ccccc34)cc(=S)n21` (stereo not drawn) [Compound 054, 7-(naphthalen-1-ylmethyl)-5-thioxo-8-(3-(trifluoromethyl)phenyl)-2,3-dihydro-5H-thiazolo[3,2-a]pyridine-3-carboxylic acid], the inhibition at 100 µM is, setting by setting: under setting [3], 39%; under setting [4], 31 to 60%.
Take `NC(=O)c1c(Cc2cccc3ccccc23)c(-c2cccc(C(F)(F)F)c2)c2n(c1=O)C(C(=O)O)CN(C1CCCC1)S2(=O)=O` (stereo not drawn) [Compound 176, 7-carbamoyl-2-cyclopentyl-8-(naphthalen-1-ylmethyl)-6-oxo-9-(3-(trifluoromethyl)phenyl)-3,4-dihydro-2H,6H-pyrido[1,2-e][1,2,5]thiadiazine-4-carboxylic acid 1,1-dioxide]: the inhibition at 100 µM is more than 60% under setting [1] and 98% under setting [2].
With `O=C(O)C1CN(Cc2ccccc2)c2c(-c3cccc(Br)c3)c(Cc3cccc4ccccc34)c(Cl)c(=O)n21` (stereo not drawn) [Compound 198, 1-benzyl-8-(3-bromophenyl)-6-chloro-7-(naphthalen-1-ylmethyl)-5-oxo-1,2,3,5-tetrahydroimidazo[1,2-a]pyridine-3-carboxylic acid], the inhibition at 100 µM is more than 60% under setting [1] and 75% under setting [2].
Turning to `O=C(O)C1CSc2c(-c3cccc(C(F)(F)F)c3)c(Cc3cccc4ccccc34)c(CO)c(=O)n21` (stereo not drawn) [Compound 057, 6-(hydroxymethyl)-7-(naphthalen-1-ylmethyl)-5-oxo-8-(3-(trifluoromethyl)phenyl)-2,3-dihydro-5H-thiazolo[3,2-a]pyridine-3-carboxylic acid], the inhibition at 100 µM is 54% under setting [3] and 31 to 60% under setting [4].
`O=C(O)C1CN(Cc2ccc(-c3ccccc3)cc2)c2c(-c3cccc(C(F)(F)F)c3)c(Cc3cccc4ccccc34)c(Cl)c(=O)n21` (stereo not drawn) [Compound 202, 1-([1,1′-biphenyl]-4-ylmethyl)-6-chloro-7-(naphthalen-1-ylmethyl)-5-oxo-8-(3-(trifluoromethyl)phenyl)-1,2,3,5-tetrahydroimidazo[1,2-a]pyridine-3-carboxylic acid]: the inhibition at 100 µM is, setting by setting: under setting [1], 31 to 60%; under setting [2], 54%.
Turning to `O=C(O)c1c(CCc2ccccc2)sc2c(-c3cccc(C(F)(F)F)c3)c(Cc3cccc4ccccc34)cc(=O)n12` [Compound 062, 7-(naphthalen-1-ylmethyl)-5-oxo-2-phenethyl-8-(3-(trifluoromethyl)phenyl)-5H-thiazolo[3,2-a]pyridine-3-carboxylic acid], the inhibition at 100 µM under setting [3] was 87% and the inhibition at 100 µM under setting [4] is more than 60%.
As to `CNC(=O)CCCN1CC(C(=O)O)n2c(c(-c3cccc(C(F)(F)F)c3)c(Cc3cccc4ccccc34)cc2=O)S1(=O)=O` (stereo not drawn) [Compound 037, 2-(4-(methylamino)-4-oxobutyl)-8-(naphthalen-1-ylmethyl)-6-oxo-9-(3-(trifluoromethyl)phenyl)-3,4-dihydro-2H,6H-pyrido[1,2-e][1,2,5]thiadiazine-4-carboxylic acid 1,1-dioxide], the inhibition at 100 µM under setting [3] is 36% and the inhibition at 100 µM under setting [4] is 31 to 60%.
For the compound `O=C(O)C1CN(Cc2ccccc2)c2c(-c3cccc(C(F)(F)F)c3)c(Cc3cccc4ccccc34)c(Cl)c(=O)n21` (stereo not drawn) [Compound 004, 1-benzyl-6-chloro-7-(naphthalen-1-ylmethyl)-5-oxo-8-(3-(trifluoromethyl)phenyl)-1,2,3,5-tetrahydroimidazo[1,2-a]pyridine-3-carboxylic acid], the inhibition at 100 µM reads like this: under setting [1], 31 to 60%; under setting [2], 55%.
In the case of `O=C(O)C1CN(Cc2ccccc2CO)c2c(-c3cccc(C(F)(F)F)c3)c(Cc3cccc4ccccc34)c(Cl)c(=O)n21` (stereo not drawn) [Compound 181, 6-chloro-1-(2-(hydroxymethyl)benzyl)-7-(naphthalen-1-ylmethyl)-5-oxo-8-(3-(trifluoromethyl)phenyl)-1,2,3,5-tetrahydroimidazo[1,2-a]pyridine-3-carboxylic acid], the inhibition at 100 µM runs as follows: under setting [1], 31 to 60%; under setting [2], 31%.
`O=C(O)C1CSc2c(-c3cccc(C(F)(F)F)c3)c(C(F)(F)c3cccc4ccccc34)cc(=O)n21` (stereo not drawn) [Compound 073, 7-(difluoro(naphthalen-1-yl)methyl)-5-oxo-8-(3-(trifluoromethyl)phenyl)-2,3-dihydro-5H-thiazolo[3,2-a]pyridine-3-carboxylic acid]: the inhibition at 100 µM runs as follows: under setting [3], 76%; under setting [4], more than 60%.
`O=C(O)C1CN(Cc2cccnc2)c2c(-c3cccc(C(F)(F)F)c3)c(Cc3cccc4ccccc34)c(Cl)c(=O)n21` (stereo not drawn) [Compound 169, 6-chloro-7-(naphthalen-1-ylmethyl)-5-oxo-1-(pyridin-3-ylmethyl)-8-(3-(trifluoromethyl)phenyl)-1,2,3,5-tetrahydroimidazo[1,2-a]pyridine-3-carboxylic acid]: the inhibition at 100 µM is 31 to 60% under setting [1] and 33% under setting [2].
With `CCCNC(=O)c1c(Cc2cccc3ccccc23)c(-c2cccc(C(F)(F)F)c2)c2n(c1=O)C(C(=O)O)CN(C)S2(=O)=O` (stereo not drawn) [Compound 154, 2-methyl-8-(naphthalen-1-ylmethyl)-6-oxo-7-(propylcarbamoyl)-9-(3-(trifluoromethyl)phenyl)-3,4-dihydro-2H,6H-pyrido[1,2-e][1,2,5]thiadiazine-4-carboxylic acid 1,1-dioxide], the inhibition at 100 µM under setting [1] was more than 60% and the inhibition at 100 µM under setting [2] turned out to be 89%.
For the compound `CC(C)CN1CC(C(=O)O)n2c1c(-c1cccc(C(F)(F)F)c1)c(Cc1cccc3ccccc13)c(Cl)c2=O` (stereo not drawn) [Compound 164, 6-chloro-1-isobutyl-7-(naphthalen-1-ylmethyl)-5-oxo-8-(3-(trifluoromethyl)phenyl)-1,2,3,5-tetrahydroimidazo[1,2-a]pyridine-3-carboxylic acid], the inhibition at 100 µM under setting [1] was in the range of 31 to 60% and the inhibition at 100 µM under setting [2] was determined as 43%.
On to `O=C(O)C1CN(CCCCCO)c2c(-c3cccc(C(F)(F)F)c3)c(Cc3cccc4ccccc34)c(Cl)c(=O)n21` (stereo not drawn) [Compound 199, 6-chloro-1-(5-hydroxypentyl)-7-(naphthalen-1-ylmethyl)-5-oxo-8-(3-(trifluoromethyl)phenyl)-1,2,3,5-tetrahydroimidazo[1,2-a]pyridine-3-carboxylic acid], for which the inhibition at 100 µM reads like this: under setting [1], 11 to 30%; under setting [2], 29%.
For `O=C(O)C1CN(CCCO)c2c(-c3cccc(C(F)(F)F)c3)c(Cc3cccc4ccccc34)c(Cl)c(=O)n21` (stereo not drawn) [Compound 197, 6-chloro-1-(3-hydroxypropyl)-7-(naphthalen-1-ylmethyl)-5-oxo-8-(3-(trifluoromethyl)phenyl)-1,2,3,5-tetrahydroimidazo[1,2-a]pyridine-3-carboxylic acid] the same measures were 31 to 60% and 39%.
As for `O=C(O)C1COc2c(-c3cccc(C(F)(F)F)c3)c(Cc3cccc4ccccc34)cc(=O)n21` (stereo not drawn) [Compound 064, 7-(naphthalen-1-ylmethyl)-5-oxo-8-(3-(trifluoromethyl)phenyl)-2,3-dihydro-5H-oxazolo[3,2-a]pyridine-3-carboxylic acid], the inhibition at 100 µM under setting [3] was 37% and the inhibition at 100 µM under setting [4] was 31 to 60%.
Consider `O=C(O)C1CN(CCCCCCCN2CC(C(=O)O)n3c2c(-c2cccc(C(F)(F)F)c2)c(Cc2cccc4ccccc24)c(Cl)c3=O)c2c(-c3cccc(C(F)(F)F)c3)c(Cc3cccc4ccccc34)c(Cl)c(=O)n21` (stereo not drawn) [Compound 188, 1,1′-(heptane-1,7-diyl)bis(6-chloro-7-(naphthalen-1-ylmethyl)-5-oxo-8-(3-(trifluoromethyl)phenyl)-1,2,3,5-tetrahydroimidazo[1,2-a]pyridine-3-carboxylic acid)], for which the inhibition at 100 µM runs as follows: under setting [1], more than 60%; under setting [2], 62%.

By inhibition is commonly meant the change of the read-out against control, counted positive when it falls.
